Patent US20210113540A1, “TREATMENT AGENT AND PHARMACEUTICAL COMPOSITION FOR GLIOMA” (NATIONAL UNIVERSITY CORPORATION HOKKAIDO UNIVERSITY, priority 2018, published 2021)
Where two headings read alike, the source gives them in different places.

Experiments:
[1] = system: Glioma-initiating cell E16; assay: Cell proliferation test (MTT) on GIC strain E16; assay type: cell-based; settings: Homo sapiens, 72 h, MTT after 3 days
Method: (§1) GIC and GICR strain: Cell growth test was performed using E6, E6R, E16, and E16R (Stem Cells. 2016 August; 34(8): 2016-25.).
(§2) Cell culture solutions were obtained by mixing a medium prepared by adding various compounds, bFGF (Peprotech, 100-18B) and EGF (Peprotech, 100-15) to DMEM/Ham's F-12 medium (SIGMA, D8062) and a medium prepared by adding FCS (Hyclone, SH30910.03) to DMEM medium (Nacalai tesque, 08458-45) to a concentration of 10% for use.
(§3) Each compound adjusted to a predetermined concentration was dispensed into a 96-well plate (Falcon, 353072) at 80 μL/well, and E6 cells and E6R cells were seeded on the 96-well plate at 1000 cells/80 μL/well. After 3 days, 10 μL of an MTT reagent (DOJINDO, 341-01823) was added, the cells were incubated at 37° C. for 3 hours, the culture solution was removed, and 100 μL of DMSO was added. The absorbance at 570 nm was measured using Bio-Rad iMark (Bio-Rad, 168-1130JA). The growth inhibition rate at each test compound concentration was calculated by the following formula using the absorbance as an index of the viable cell count.
(§4) The growth inhibition rate at each compound concentration was determined, and the 50% growth inhibition concentration GI50 (μmol/L)] was calculated using XLfit. Growth inhibition rate (%)=(Amount of luminescence from wells supplemented with test compound)/(Amount of luminescence from wells supplemented with DMSO)×100

[2] = system: Glioma-initiating cell E16R; assay: Cell proliferation test (MTT) on GICR strain E16R; assay type: cell-based; settings: Homo sapiens, 72 h, MTT after 3 days
Method: as §1, §2, §3, §4

SOX2 in GICs (E6) = assay: SOX2 immunostaining, SOX2/DAPI positive rate in GICs (E6); assay type: cell-based, human
Method: (§5) The extranuclear elimination of compound 8-dependent SOX2 is dependent on the extranuclear transport factor, Exportin (also known as CRM1). The cells were cultured for one day in the presence of Compound 8 (10 μM) and a CRM1-specific inhibitor leptomycin B (LMB, 150 nM), and GICs were immunostained with the SOX2 antibody. As a result, the SOX2/DAPI positive rate in GICs (E6) was as follows: Control: 95±2%, supplemented with Compound 8: 7±3%, supplemented with Compound 8+LMB: 87±9%; the SOX2/DAPI positive rate in GICs (E16) was as follows: Control: 72±11%, supplemented with compound 8: 0.5±1%, supplemented with Compound 8+LMB: 81±10%. The addition of LMB suppressed Compound 8-dependent extranuclear elimination of SOX2.
(§6) When UDP-GlcNAc was added after the chemical was added to GIC, reduced SOX2 expression in GICs and the cytotoxic activity of Compound 8 on GICs were neutralized (FIGS. 3 and 4). SOX2 K75A in which lysine 75 involved in the binding of CRM1 and SOX2 was substituted with alanine and SOX2 S248A in which the 0-GlcNAcylation target serine 248 was substituted with alanine were prepared, thereby establishing GICs that constitutively express these SOX2 mutants and wild-type SOX2 (SOX2 wt). After treatment with Compound 8, the localization of SOX2 was examined by immunostaining using an anti-FLAG antibody, and the viability of GICs expressing these mutants was examined by MTT assay (FIG. 5). In the presence of Compound 8, SOX2 K75A was present in the nucleus and partially neutralized the cytotoxic activity of Compound 8. SOX2 S248A was not retained in the nucleus by treatment with Compound 8, and no inhibitory effect on cytotoxic activity was observed. […] The SOX2/DAPI positive rate was as follows: GIC (E6): Control: 0%, SOX2 wt: 36±5%, SOX2 K75A: 63±5%, SOX2 S248A: 18±2%; GIC (E16): Control: 0%, SOX2 wt: 22±4%, SOX2 K75A: 58±6%, SOX2 S248A: 15±3%. Error bar: ±SD. Statistical processing is t-test. *P<0.05, **P<0.01, ***P<0.001. GIC was cultured for 2 days with Compound 8 (10 μmol/L) alone or together with UDP-GlcNAc (1 mmol/L), and immunostaining was performed for SOX2 and NESTIN. As a result, the addition of UDP-GlcNAc suppressed Compound 8-dependent extranuclear elimination of SOX2.
(§7) OSMI-1, which is an O-GlcNAc transferase (OGT)-specific inhibitor, suppresses GIC growth and SOX2 expression. (A) GICs were cultured for 3 days in the presence of various concentrations of OSMI-1, and cell growth was examined using MTT assay (FIG. 6). (B) The results of immunostaining for SOX2 and NESTIN using GICs cultured for 2 days in the presence of 20 μmol/L OSMI-1 and calculating the SOX2 positive rate (SOX2/DAPI) are shown below.

SOX2 in GICs (E16) = assay: SOX2 immunostaining, SOX2/DAPI positive rate in GICs (E16); assay type: cell-based, human
Method: as §5, §6, §7

[3] = system: Temozolomide-resistant E6 (E6R); assay: Xenograft model, subcutaneous E6R in NOD/SCID mice; assay type: in vivo
Method: Temozolomide-resistant E6 (E6R, 1×10^6) was subcutaneously transplanted into NOD/SCID mice (n=6), and Compound 8 (1.0 mg/kg) was orally administered for 11 consecutive days after the long diameter and short diameter of tumor became 5 to 6 mm. […] The size of tumor was calculated as (long diameter)×(short diameter)^2/2. Tumors were excised from Compound 8 treated mice and control mice on Day 12 from the start of oral administration of Compound 8 and fixed with 4% paraformaldehyde, followed by preparation of frozen sections. As a result, tumor cell aggregates disappeared by treatment with Compound 8.

GICs (E6, E16) = assay: Quantitative determination of metabolites by LC-MS/MS in GICs; assay type: cell-based, human; design: amounts of purine metabolites (ATP, GTP, dATP, dGTP): dose or concentration left out as unconfirmed; settings: 24 hours
Method: Compound 8 was added to GICs (E6, E16) at […] and treated for 24 hours. Cells were washed with a 5% mannitol solution, 70% ice-cold methanol was added, and metabolites were extracted. […] In addition, the amount of orotic acid was decreased in E16 cells.

[4] = after treatment with Compound 8, anti-FLAG immunostaining
[5] = 1.0 mg/kg orally, tumors excised on Day 12

GI50 ([1]; read-out: GI50 (nmol/L) of Glioma-initiating cell E16): 434 nmol/L
GI50 ([1]; read-out: GI50 class of Glioma-initiating cell E16): < 1000 nmol/L
GI50 ([2]; read-out: GI50 (nmol/L) of Glioma-initiating cell E16R): 490 nmol/L
GI50 ([2]; read-out: GI50 class of Glioma-initiating cell E16R): < 1000 nmol/L
Compound: O=C(O)c1cc(C2CC2)cnc1Nc1ccc2c(ccn2-c2ccccc2)c1 [Compound 8, 5-cyclopropyl-2-((1-phenyl-1H-indole-5-yl)amino)nicotinic acid]
SOX2/DAPI positive rate in GICs (E6) (SOX2 in GICs (E6); Compound 8 10 μM, LMB 150 nM where added, cultured one day, control 95±2%): 7±3%
SOX2/DAPI positive rate, GIC (E6) expressing SOX2 K75A (SOX2 in GICs (E6); [4]): 63±5%
SOX2/DAPI positive rate, GIC (E6) expressing SOX2 S248A (SOX2 in GICs (E6); [4]): 18±2%
SOX2/DAPI positive rate, GIC (E6) expressing SOX2 wt (SOX2 in GICs (E6); [4]): 36±5%
SOX2/DAPI positive rate in GICs (E16) (SOX2 in GICs (E16); Compound 8 10 μM, LMB 150 nM where added, cultured one day, control 72±11%): 0.5±1%
SOX2/DAPI positive rate, GIC (E16) expressing SOX2 K75A (SOX2 in GICs (E16); [4]): 58±6%
SOX2/DAPI positive rate, GIC (E16) expressing SOX2 S248A (SOX2 in GICs (E16); [4]): 15±3%
SOX2/DAPI positive rate, GIC (E16) expressing SOX2 wt (SOX2 in GICs (E16); [4]): 22±4%
tumor growth (size of tumor) ([3]; 1.0 mg/kg orally for 11 consecutive days, FIG. 2): reduced tumor growth
SOX2 in the mouse tumor tissue [3, 5]: disappearance of SOX2
tumor cell aggregates in excised tumor sections [3, 5]: disappeared
amounts of pyrimidine metabolites downstream of orotic acid (UMP, UDP, UTP, CMP, CDP, CTP, dCTP, dTTP) (GICs (E6, E16); 10 M): reduced
amounts of purine metabolites (ATP, GTP, dATP, dGTP) (GICs (E6, E16)): remained unchanged
